Read-outs that look alike come from different tables or passages of the source.

The test system of one assay is genotype D HBV. The experiment in a line: HBV-DNA Antiviral Assay Using HepG2.117 Cells. It counts as cell-based. The following applies: intracellular HBV DNA by qPCR, day 4. As for the experimental part: The following assay procedure describes the HBV antiviral assay, using HepG2.117 cells, which carry a stably integrated genotype D HBV genome under the control of a Tet-off promoter, and intracellular HBV DNA quantification as endpoint. Cell viability is assessed in parallel by measuring the intracellular ATP content using ATPlite (Perkin Elmer).
On day 0, HepG2.117 cells (which are maintained in routine cell culture with doxycycline present in the medium at a final concentration of 1 μg/mL) were seeded in 96-well plates (white with clear bottom) at a density of 2.0×10^4 cells/well (0.1 mL/well) in medium without doxycycline to induce pgRNA transcription and subsequent formation of HBV particles. The cells were incubated at 37° C. and 5% CO2.
On day 1, medium was removed from each well, the test articles were diluted in culture medium without doxcycyline and 100 μL was added to cell culture wells (9 concentrations, 4-fold dilution). For each plate, 6 untreated (merely DMSO) wells were included. The final concentration of DMSO in the culture medium was 2%. Each plate was prepared in duplicate (one for HBV DNA extraction, one for ATPlite measurement). The cells were incubated at 37° C. and 5% CO2 for 3 days.
On day 4, cell viability was assessed using ATPlite and cell lysates were prepared for HBV DNA extraction and subsequent quantification by qPCR.
Medium was removed from each well and 100 μL of 0.33% NP-40 in H2O was added to each well. Plates were sealed, incubated at 4° C. for 5 mins, vortexed extensively and centrifuged briefly. Next, 35 μL of lysate was added to 65 μL QuickExtract DNA Extraction Solution (Epicentre) in a PCR plate for each well. PCR plate was incubated at 65° C. for 6 mins, 98° C. for 2 mins and finally cooled to 4° C. HBV DNA was then quantified by qPCR with HBV-specific primers and probes as specified in Table 4 using the Bio-Rad SSOAdvanced Universal Probes Supermix on a CFX96 machine (Bio-Rad). The PCR cycle program consisted of 95° C. for 3 mins, followed by 40 cycles at 95° C. for 10 sec and 60° C. for 30 sec.
A DNA standard was prepared by dilution of an IDT gBlock corresponding to the amplicon with concentrations ranging from 10^2 to 10^8 copies/input (i.e. per 4 μL) and used to generate a standard curve by plotting Cq values vs. HBV DNA standard concentration. The quantity of HBV DNA in each sample was determined by interpolating from the standard curve.
Cell viability was calculated as follows: % Cell viability=(luminescence value of test sample)/(average luminescence value of 2% DMSO control)×100%. HBV DNA inhibition was calculated as follows: 100−(HBV DNA copy number of test sample)/(average HBV DNA copy number of 2% DMSO control)×100%. No normalization to entecavir was required due to the excellent dynamic window of this assay. The CC50, EC50 and EC90 values were determined by dose-response curves fitted by GraphPad Prism using “log (agonist) vs. response—Variable slope”.

A further assay concerns HBV. Briefly: HBV-DNA Antiviral Assay Using HepG2.2.15 Cells. It counts as cell-based. The method, then: The following assay procedure describes the HBV antiviral assay. This assay uses HepG2.2.15 cells, which have been transfected with HBV genome, and extracellular HBV DNA quantification as endpoint. Cell viability is assessed in parallel by measuring the intracellular ATP content using the CellTiter-Glo® reagent from Promega.
On day 0, HepG2.2.15 cells were seeded in 96-well plates at a density of 6.0×10^4 cells/well(0.1 ml/well). The cells were incubated at 37° C. and 5% CO2.
On day 1, the test articles were diluted and added to cell culture wells (8 concentrations, 4-fold dilution, in duplicate). GLS4, Tenofovir and Sorafenib were used as reference compounds. 100 μl of culture medium containing the compounds was added to the plate, and the final total volume per well was 200 μl. The final concentration of DMSO in the culture medium was 0.5%. The plate map of compound treatment is shown below. The cells were cultured at 37° C. and 5% CO2 for 3 days.
On day 4, the plates were refreshed with culture media with compounds.
On day 7, cell viability was assessed using the CellTiter-Glo®, and the cell culture supernatants were collected for determination of HBV DNA by qPCR.
Extracellular DNA was isolated with QIAamp 96 DNA Blood Kit per the manufacturer's manual. HBV DNA was then quantified by qPCR with HBV specific primers and probes as specified in Table 2 using the FastStart Universal MasterMix from Roche on an ABI-7900HT. The PCR cycle program consisted of 95° C. for 10 min, followed by 40 cycles at 95° C. for 15 sec and 60° C. for 1 min.
A DNA standard was prepared by dilution of the pAAV2 HBV1.3 plasmid with concentrations ranging from 10 to 1×10^7 […] and used to generate a standard curve by plotting Ct value vs. the concentration of the HBV plasmid DNA standard. The quantity of HBV DNA in each sample was determined by interpolating from the standard curve.
Cell viability was calculated as follows: % Cell viability=(luminescence value of test sample−average luminescence value of blank)/(average luminescence value of 0.5% DMSO control−average luminescence of blank)×100%. HBV DNA inhibition was calculated as follows: 100−(HBV DNA copy number of test sample−HBV DNA copy number of ETV)/HBV DNA copy number of 0.5% DMSO control−HBV DNA copy number of ETV)×100%. The CC50, EC50 and EC90 values were determined by dose-response curves fitted by GraphPad Prism using “log (agonist) vs. response—Variable slope”.

Setting [1] is: Hepatitis B virus, HepG2.2.15 cells, extracellular HBV DNA by qPCR, one class for the group of four: *at least 2 of the diastereomers have the indicated activity, read-out: EC50.

Turning to `C=C[C@H]1COc2c(cn(C)c2C(=O)Nc2ccc(F)c(C#N)c2)S(=O)(=O)N1` [Compound 1, (3S)—N-(3-cyano-4-fluorophenyl)-3-ethenyl-7-methyl-1,1-dioxo-2H,3H,4H-11λ6-pyrrolo[3,4-b][1,4,5]oxathiazepine-6-carboxamide], the EC50 with genotype D HBV is 1 to 10 nM; with HBV (HepG2.2.15 cells, extracellular HBV DNA by qPCR, day 7, read-out: EC50), below 1000 nM. Molecule `CC#C[C@@H](O)[C@H]1CCc2c(cn(C)c2C(=O)Nc2ccc(F)c(C#N)c2)S(=O)(=O)N1` [Compound 3A, (3R)—N-(3-cyano-4-fluorophenyl)-3-[(1R)-1-hydroxybut-2-yn-1-yl]-7-methyl-1,1-dioxo-2H,3H,4H,5H-1λ6-pyrrolo[3,4-f][1,2]thiazepine-6-carboxamide] had an EC50 in the assay on HBV (Hepatitis B virus, HepG2.2.15) below 1000 nM.

In the assay on HBV (Hepatitis B virus, HepG2.2.15), `CC#C[C@H](O)[C@@H]1CCc2c(cn(C)c2C(=O)Nc2ccc(F)c(C#N)c2)S(=O)(=O)N1` [Compound 3C, (3S)—N-(3-cyano-4-fluorophenyl)-3-[(1S)-1-hydroxybut-2-yn-1-yl]-7-methyl-1,1-dioxo-2H,3H,4H,5H-1λ6-pyrrolo[3,4-f][1,2]thiazepine-6-carboxamide] displayed an EC50 below 1000 nM. Still for that read-out and setting: with `CC#C[C@@H](O)[C@@H]1CCc2c(cn(C)c2C(=O)Nc2ccc(F)c(C#N)c2)S(=O)(=O)N1` [Compound 3D, (3S)—N-(3-cyano-4-fluorophenyl)-3-[(1R)-1-hydroxybut-2-yn-1-yl]-7-methyl-1,1-dioxo-2H,3H,4H,5H-1λ6-pyrrolo[3,4-f][1,2]thiazepine-6-carboxamide] the figure was below 1000 nM. Turning to `C=C[C@@H](O)[C@H]1CCc2c(cn(C)c2C(=O)Nc2ccc(F)c(C#N)c2)S(=O)(=O)N1` [Compound 4A, (3R)—N-(3-cyano-4-fluorophenyl)-3-[(1R)-1-hydroxyprop-2-en-1-yl]-7-methyl-1,1-dioxo-2H,3H,4H,5H-1λ6-pyrrolo[3,4-f][1,2]thiazepine-6-carboxamide], in the assay on HBV (setting [1]), the EC50 is below 1000 nM. As to `C=C[C@H](O)[C@H]1CCc2c(cn(C)c2C(=O)Nc2ccc(F)c(C#N)c2)S(=O)(=O)N1` [Compound 4B, (3R)—N-(3-cyano-4-fluorophenyl)-3-[(1S)-1-hydroxyprop-2-en-1-yl]-7-methyl-1,1-dioxo-2H,3H,4H,5H-1λ6-pyrrolo[3,4-f][1,2]thiazepine-6-carboxamide], the EC50 in the assay on HBV (setting [1]) was below 1000 nM.

Regarding `C=C[C@H](O)[C@@H]1CCc2c(cn(C)c2C(=O)Nc2ccc(F)c(C#N)c2)S(=O)(=O)N1` [Compound 4C, (3S)—N-(3-cyano-4-fluorophenyl)-3-[(1S)-1-hydroxyprop-2-en-1-yl]-7-methyl-1,1-dioxo-2H,3H,4H,5H-1λ6-pyrrolo[3,4-f][1,2]thiazepine-6-carboxamide], the EC50 in the assay on HBV (setting [1]) was below 1000 nM. Still for that read-out and setting: the value for `C=C[C@@H](O)[C@@H]1CCc2c(cn(C)c2C(=O)Nc2ccc(F)c(C#N)c2)S(=O)(=O)N1` [Compound 4D, (3S)—N-(3-cyano-4-fluorophenyl)-3-[(1R)-1-hydroxyprop-2-en-1-yl]-7-methyl-1,1-dioxo-2H,3H,4H,5H-1λ6-pyrrolo[3,4-f][1,2]thiazepine-6-carboxamide] was below 1000 nM. Regarding `Cn1cc2c(c1C(=O)Nc1ccc(F)c(C#N)c1)OC[C@H](C=C(F)F)NS2(=O)=O` [Compound 6A], the concentration giving a half-maximal response (EC50) in the assay on HBV (Hepatitis B virus, 168 h, HepG2.2.15 cells, extracellular HBV DNA by qPCR, day 7, read-out: EC50) was below 1000 nM.

The values above are taken from patent US11033556B2, “Bicyclic sulfonamides” (priority 2019, dated 2021).
